Key:
[1] = Effect on the activity of prolyl endopeptidase (PEP) was evaluated at the IC50 concentration for DPP IV and
[2] = Effect on the activity of prolyl endopeptidase (PEP) was evaluated at 1 mM concentration for DPP IV

## CC(=O)Nc1cccc(OP(=O)(Oc2cccc(NC(C)=O)c2)C2CCCN2C(=O)C2CCCN2)c1 (configuration not stated) [2-{2-[Bis-(3-acetylamino-phenoxy)-phosphoryl]-pyrrolidine-1-carbonyl}-pyrrolidinium; chloride]
[1]
  IC50: 89 µM
[2]
  IC50: 50 µM

— BindingDB's records for doi:10.1021/jm981033g (University of Antwerp (Uia), 1999)
